Measured values published in patent publication EP4789666A1, “RNA M6A REGULATOR COMPOSITION, PREPARATION METHOD THEREFOR, AND USE THEREOF” (SHANGHAI MERNA THERAPEUTICS CO. LTD, priority 2023, dated 2025).
Like-named read-outs stand apart in the source and are kept apart here.

What was measured:
[1] = tested on: rat models with hand-foot skin reaction; test: Rat models with hand-foot skin reaction, topical ointment (incidence rate, histology, immunohistochemistry); assay type: in vivo, SD rats; details: for Incidence rate, left paw: once daily 30 days; for Incidence rate, right paw: right paw with blank matrix ointment (self-control)
Method: After adaptive feeding for one week, SD rats (with a body weight of approximately 200 g) were randomly divided into groups with balanced body weight, with 12 rats in each group. Modeling drugs (including sorafenib, erlotinib, afatinib, and osimertinib) were respectively dissolved in a solution containing 5% of DMSO, 45% of PEG400, and 50% of H2O, and the modeling drugs were diluted to required concentrations and then administered once daily by gavage at doses shown in Table 3. After administration by gavage for 1 hour, 0.05 g of ointments containing different mass proportions of test compounds were evenly applied to left paws of the rats, a blank matrix ointment was applied to right paws of the rats to serve as a self-control, and no ointment was applied to the rats in a blank control group. After drug application, four limbs were continuously immobilized for 2 hours, then wiped with clean water to remove the residual drugs, removed from immobilization, and restored to free movement. The modeling drugs, the blank matrix ointment, and the ointments containing the test compounds were all administered once daily. After continuous administration for 30 days, the rats were euthanized, and paw plantar skin tissues were collected, fixed in 10% neutral formalin, […]. The ointments for the test compounds were prepared by mixing the compounds, white beeswax, white petrolatum, and light liquid paraffin in specific ratios (weight ratios of 3 ointments were respectively 1:18:58:23, 3:18:57:22, and 10:20:40:30). The blank matrix ointment was prepared by mixing white beeswax, white petrolatum, and light liquid paraffin in a specific ratio (weight ratio of 18:60:22).
Tissue staining: After dewaxing and rehydration, the paw plantar skin tissue sections of the above rats were stained in a hematoxylin solution for several minutes, cleaned, and placed in 1% acid alcohol for soaking until the sections faded to light blue-red. After cleaning with running water for 5 minutes, the sections were stained with eosin for 2-3 minutes, cleaned to remove excess dyes, dehydrated, then permeabilized by adding xylene for several minutes, and sealed and fixed with a neutral resin. The stratum corneum was observed under an optical microscope, and the thickness of the epidermal stratum corneum was measured using Dmetrix software.
Immunohistochemical staining: After dewaxing and hydration, the paw plantar skin tissue sections of the above rats were incubated with 3% H2O2 at room temperature for 30 minutes and blocked with 10% goat serum for 30 minutes after antigen retrieval. A KRT1 antibody (Abcam, ab93652) and a Loricrin antibody (Abcam, ab183646) were added dropwise, the sections were incubated overnight at 4°C, and an HRP secondary antibody (ZSGB-BIO, PV-6001) and a DAB kit (ZSG-BIO, ZLI9017) were added for color development. The sections were re-stained with hematoxylin, cleaned, and sealed and fixed with a neutral resin, and the expression amounts of KRT1 and Loricrin were observed under an optical microscope.
An incidence rate calculation method involves a proportion of animals in each group meeting the above criteria for determining successful modeling, that is, incidence rate = (number of successfully modeled rats/total number of rats in the group)*100%. […]

[2] = Pharmacokinetic study after single topical administration of ointment to the skin of CD-1 mice (LC-MS/MS); assay type: in vivo; details: 3% suspension ointment
Method: 6 CD-1 mice were divided into 2 groups, with 3 mice per group, and then respectively received an ointment containing the compound of formula (I) by single topical administration to the backs at 1 mg/cm^2 (3% suspension ointment) with an application area of 1 cm^2. The plasma concentration and skin tissue homogenate concentration of the compound of formula (I) were determined by an LC-MS/MS method.

[3] = Stability test of binary mixtures of the compound of formula (I) and penetration enhancers; assay type: physicochemical; details: binary mixture 10:1, 40°C/75%RH
Method: Different types of penetration enhancers and the compound of formula (I) were mixed at a weight ratio of 10:1 to carry out a stability test under accelerated conditions of 40°C/75%RH. Table 15: Stability test of binary mixtures of the compound of formula (I) and penetration enhancers

[4] = Afatinib 50 mg/kg model, 1% ointment on left paw
[5] = Afatinib 50 mg/kg model, 3% ointment on left paw
[6] = Afatinib 50 mg/kg model, 10% ointment on left paw
[7] = Erlotinib 70 mg/kg model, 1% ointment on left paw
[8] = Erlotinib 70 mg/kg model, 3% ointment on left paw
[9] = Erlotinib 70 mg/kg model, 10% ointment on left paw
[10] = Osimertinib 60 mg/kg model, 1% ointment on left paw
[11] = Osimertinib 60 mg/kg model, 3% ointment on left paw
[12] = Osimertinib 60 mg/kg model, 10% ointment on left paw
[13] = Sorafenib 100 mg/kg model, 1% ointment on left paw
[14] = Sorafenib 100 mg/kg model, 3% ointment on left paw
[15] = Sorafenib 100 mg/kg model, 10% ointment on left paw
[16] = dorsal skin tissue homogenate, 1 mg/cm^2, mean
[17] = mouse, topical or ocular, plasma, 1 mg/cm^2, mean

With `NC(=O)[C@H]1CCCc2c1[nH]c1ccc(Cl)cc21` [Compound of formula (I), (S)-6-chloro-2,3,4,9-tetrahydro-1H-carbazole-carboxamide] the “Incidence rate, left paw” value [1, 4] was 3/12 (25%), the “Incidence rate, left paw” value [1, 5] was 2/12 (17%) and the “Incidence rate, left paw” value [1, 6] was 0/12 (0%). For the same compound, the “Incidence rate, right paw” value [1, 4] was 9/12 (75%), the “Incidence rate, right paw” value [1, 5] was 4/12 (33%) and the “Incidence rate, right paw” value [1, 6] was 3/12 (25%). The “Incidence rate, left paw” value [1, 7] was 3/12 (25%), the “Incidence rate, left paw” value [1, 8] was 2/12 (17%) and the “Incidence rate, left paw” value [1, 9] was 1/12 (8%). For the same compound, the “Incidence rate, right paw” value [1, 7] was 10/12 (83%), the “Incidence rate, right paw” value [1, 8] was 5/12 (42%) and the “Incidence rate, right paw” value [1, 9] was 4/12 (33%). For the same compound, the “Incidence rate, left paw” value [1, 10] was 2/12 (17%), the “Incidence rate, left paw” value [1, 11] was 2/12 (17%) and the “Incidence rate, left paw” value [1, 12] was 0/12 (0%). For the same compound, the “Incidence rate, right paw” value [1, 10] was 8/12 (67%), the “Incidence rate, right paw” value [1, 11] was 4/12 (33%) and the “Incidence rate, right paw” value [1, 12] was 3/12 (25%). For the same compound, the “Incidence rate, left paw” value [1, 13] was 2/12 (17%), the “Incidence rate, left paw” value [1, 14] was 2/12 (17%) and the “Incidence rate, left paw” value [1, 15] was 0/12 (0%). For the same compound, the “Incidence rate, right paw” value [1, 13] was 9/12 (75%), the “Incidence rate, right paw” value [1, 14] was 4/12 (33%) and the “Incidence rate, right paw” value [1, 15] was 4/12 (33%). For the same compound, the “Plasma drug concentration at 24 h” value ([2]; 1 mg/cm^2) was “Below a lower detection limit”, the “Drug concentration in skin tissues at 4 h” value [2, 16] was 33,033 ng/g and the “Drug concentration in skin tissues at 24 h” value [2, 16] was 7,907 ng/g. It also gave a concentration at 4 h ([2]; mouse, dorsal skin tissue homogenate, 1 mg/cm^2, mean, read-out: Drug concentration in skin tissues at 4 h) of 33000 ng/g, a concentration at 24 h ([2]; mouse, dorsal skin tissue homogenate, 1 mg/cm^2, mean, read-out: Drug concentration in skin tissues at 24 h) of 7910 ng/g and a concentration at 4 h ([2]; mouse, plasma, 1 mg/cm^2, mean, read-out: Plasma drug concentration at 4 h) of 6.15 ng/mL. It also gave a Cmax ([2]; mouse, topical or ocular, plasma, 1 mg/cm^2, 1 cm^2, mean) of 14 ng/mL, an AUC(0-inf) [2, 17] of 57.5 ng·h/mL and an AUC(0-t) [2, 17] of 40.7 ng·h/mL. The MRT inf [2, 17] was 5.54 h, the Tmax [2, 17] was 1.67 h and the half-life [2, 17] was 5.15 h. The “AUC Extr” value ([2]; plasma, 1 mg/cm^2, mean) was 18.9%, the AUCInf/Dose ([2]; plasma, 1 mg/cm^2, mean) was 1.63 kg·ng·h/mL/mg and the “stability in diisopropyl oxalate” value [3] was “unstable”. For the same compound, the “stability in propylene carbonate” value [3] was “unstable”.
